Where two headings read alike, the source gives them in different places.
Tests used:
RT4 = assay: MTT assay RT4; assay type: cell-based; conditions: Table 5 lower part; RT4 bladder cancer
Description: (§1) MTT assays. […] Viable cells (2500 cells per well) were plated in each well in 96-well plates. After an overnight incubation, cells were treated with and without relevant drugs alone and in combination, respectively, at various concentrations and incubated for 72 hours. MTT, a colorimetric substrate, was added to a final concentration of 0.4 mg/ml to each well. Cells in 96-well plates were further incubated in a 5% CO2 incubator at 37° C. for 4 hours, and then the medium was aspirated. The MTT metabolic product formazan was solubilized by adding 200 ul of DMSO to each well. Absorbance in the relevant wells was measured at 570 nm using an Ultra Microplate Reader (Bio-Tek Instruments). Each experiment was performed at least in triplicate. IC50/EC50 values were calculated from a series of drug dose ranges for each analyzed compound, using GraphPad Prism 6 (GraphPad Software, Inc., La Jolla, CA).
(§2) The inhibition of cell growth and viability in various cancer cell types were tested using MTT assay for references.

FaDu = assay: MTT assay FaDu; assay type: cell-based; conditions: Table 5 lower part; FaDu head-and-neck cancer
Description: as §1, §2

HT-3 = assay: MTT assay HT-3; assay type: cell-based, human; conditions: Table 5 lower part
Description: as §1, §2

A2008 = assay: MTT assay A2008; assay type: cell-based
Description: as §1, §2

T24 = assay: MTT assay T24; assay type: cell-based; conditions: Table 5 lower part; T24 bladder cancer
Description: as §1, §2

H1376 = system: H1376
Description: as §1, §2

UMUC-3 = system: UMUC-3
Description: as §1, §2

UOK262 = system: UOK262
Description: as §1, §2

UOK151 = system: UOK151
Description: as §1, §2

A2780CP70-GFPcODC cells = assay: GFPcODC drug-resistant cell tracking, A2780CP; assay type: cell-based, human; conditions: 10 μM, 72 h
Source text: (§3) Generation of A2780-GFPcODC, A2780CP-GFPcODC and PANC1GFPcODC cells and fluorescence microscopy to detect stem-like and drug resistant green cells. The retroviral expression vector pQCXIN-ZsGreen-cODC (ornithine decarboxylase), containing a green fluorescence marker, was kindly provided by Dr. Frank Pajonk (Vlashi E, et al., In vivo imaging, tracking, and targeting of cancer stem cells. J Natl Cancer Inst. 2009; 101: 350-9). The retroviral particles collected from packaging cells that transfected with the above vector were infected into A2780, A2780CP and PANC1 cells, respectively. The transfected cell pool was used for experiments. The transfected cells were treated with and without cisplatin or FL118 alone or in combination for defined times. Cell images were acquired digitally using the Olympus IX73 Inverted Score s (Olympus). Percentages of living cells were obtained from the average of the total cells counted from 10 microscopic fields.
To test this, we used a novel approach developed in Dr. Pajonk's lab for the live tracking of drug resistant cells (Vlashi E, et al., In vivo imaging, tracking, and targeting of cancer stem cells. J Natl Cancer Inst. 2009; 101: 350-9). This approach takes advantage of reduced 26S proteasome activity of drug resistant cells. […]

PANC1-GFPcODC cells = assay: Trypan blue exclusion, PANC1-GFPcODC cells; assay type: cell-based, human; conditions: 4-day treatment
Source text: as §3, with “The transfected cells were treated with and without cisplatin or FL118 alone or in combination for defined times.” left out
Next, we applied the same system to generate pancreatic cancer PANC1-GFPcODC cells.

A549 [1] = assay: MTT assay A549; assay type: cell-based, human; conditions: Table 9
Description: MTT assays. […] Each experiment was performed at least in triplicate.

SW620 xenograft tumors = conditions: oral weekly for 1-2 times
Source text: Human xenograft tumors used. In this invention disclose, human SW620 (colorectal), HT29 (colorectal) and HT-3 (retinoblastoma) cancer cell line-established xenograft tumors were used. Human tumor cell line-derived xenograft tumors are initially established by subcutaneously injecting 2-5×10^6 cultured cancer cells in a volume of 100-150 p L medium into the flank area of severe combined immunodeficiency (SCID) mice. The derived tumors are then passed a couple of generations in mice by transplanting 30-50 mg non-necrotic tumor mass via a trocar for experiments or maintenance. […] PDX tumors were originally established on severe Combined Immunodeficiency (SCID) mice from pancreatic and colorectal cancer patient tumor tissues obtained from metastatic sites of the disease in the clinic.
Human SW620 xenograft tumors were initially established by subcutaneously injection of 2-5×10^6 SW620 cells in a volume of 100-150 μL medium. Mouse models of SW620 xenografts were set up by subcutaneously inoculating 30-40 mg tumor tissue (isolated from tumor maintenance SCID mice) on the flank of SCID mice. Treatment with individual compounds was initiated 7-14 days after the transplanted tumors reached 100-200 mm^3 (designated day 0). The treatment schedule is weekly for 1-2 times in a series of dose levels based on the available drug amounts then. The individual compounds were formulated in an organic solvent-free with HPβCD in 2% HPMC (hydroxypropyl methylcellulose) and 1% PG (propylene glycol) in saline (a thick aqueous suspension) for oral administration. The vehicle is the same thick aqueous suspension without drug.

PDX14244 and PDX27454 = assay: Pancreatic PDX14244 (left flank) and colorectal PDX27454 (right flank) in the same SCID mice; assay type: in vivo; conditions: oral weekly for 4 times
Description: Human xenograft tumors used.
The vehicle is the same aqueous suspension without FL7N-1. Experimental SCID mice were subcutaneously implanted with 30-40 mg individual PDX tumors (isolated from maintenance mice) at the flank area (left side for PDX14244, and right side for PDX27454) of SCID mice. […] The animal model of PDX tumors was orally treated weekly for 3 times as shown with black arrows. […] Thus, FL7N-1 may be a priority candidate to be developed for treatment of children rare disease retinoblastoma.
(§4) The vehicle is the same think aqueous suspension without drug. Experimental SCID mice were subcutaneously implanted with 30-40 mg individual PDX tumors (isolated from maintenance mice) at the flank area (left side for PDX14244, and right side for PDX27454) of SCID mice. […] The animal model of PDX tumors was orally treated weekly for 3 times as shown with black arrows.
as §4, with “for 4” for “for 3”, “times (one cycle/course,” for “times”, “black arrows).” for “black arrows.”
as §4, with “times in two doses due to drug limitation then (as” for “times as”, “black arrows).” for “black arrows.”

HCT116 = assay type: cell-based, human
A549 [2] = assay type: cell-based, human
HepG2 = assay type: cell-based, human
HeLa = assay type: cell-based, human
[3] = system: HepG2, A549, HeLa, HCT116; conditions: four cell lines, in words
HCT116 cells = assay: ROS production, DCFH-DA probe; assay type: cell-based, human; conditions: 5-100 nM vs vehicle control
Source text: Under the influence of pro-apoptotic signals, the elevation of reactive oxygen species (ROS) may serve as a secondary messenger to upregulate the expression of pro-apoptotic proteins, thereby inducing cellular apoptosis.

[4] = Table 5 lower part, A2008 ovarian cancer
[5] = Table 5 lower part, H1376 bladder cancer
[6] = Table 5 lower part, UMUC-3 bladder cancer

SMILES	IC50/EC50 (RT4)	IC50/EC50 (FaDu)	IC50/EC50 (A2008; [4])	IC50/EC50 (T24)	IC50/EC50 (H1376; [5])	IC50/EC50 (UMUC-3; [6])	IC50/EC50 (A549 [1])	antitumor activity (SW620 xenograft tumors)	IC50/EC50 (A2008; Table 9, A2008)	also measured
CC[C@@]1(O)C(=O)OCc2c1cc1n(c2=O)Cc2cc3c(CN(C)C)c(O)ccc3nc2-1 [Topotecan, reference compound]	96.4 nM	26.63 nM	46.1 nM	37.2 nM	>500 nM	52.8 nM				IC50/EC50 (HT-3; HT-3 cervical carcinoma): 83.42 nM; IC50/EC50 (H1376; Table 8, H1376): >500 nM; IC50/EC50 (UMUC-3; Table 8, UMUC-3): 52.8 nM; IC50/EC50 (UOK262; Table 5 lower part, UOK262 kidney cancer): >200 nM; IC50/EC50 (UOK262; Table 8, UOK262): >200 nM; IC50/EC50 (UOK262; Table 10, UOK262): >200 nM; IC50/EC50 (UOK151; Table 5 lower part, UOK151 kidney cancer): >200 nM; IC50/EC50 (UOK151; Table 8, UOK151): >200 nM; IC50/EC50 (UOK151; Table 10, UOK151): >200 nM
N.N.[Cl][Pt][Cl] [cisplatin]										total cell population killed (A2780CP70-GFPcODC cells): 90%; GFP-negative (drug sensitive) PANC1 cells killed (PANC1-GFPcODC cells; 50 μM): 92%; cell death (PANC1-GFPcODC cells; 20 μM cisplatin, 10 nM FL118, or both): ~18%
CC[C@@]1(O)C(=O)OCc2c1cc1n(c2=O)Cc2c-1nc1cc3c(cc1c2-c1cccs1)OCO3 [W-b6]							1.2 nM	much higher antitumor activity than the other compounds in this Wb-series	11.1 nM	
CCc1ccc(-c2c3c(nc4cc5c(cc24)OCO5)-c2cc4c(c(=O)n2C3)COC(=O)[C@]4(O)CC)cc1 [7Q 6]	1.51 nM	0.85 nM	1.34 nM	0.19 nM	386 nM	0.4 nM				IC50/EC50 (HT-3; HT-3): 3.11 nM; antitumor activity, 7Q-series (1) (PDX14244 and PDX27454): much higher antitumor activity than the other compounds in this 7Q-series (1)
CC[C@@]1(O)C(=O)OCc2c1cc1n(c2=O)Cc2c-1nc1cc3c(cc1c2-c1ccc(F)cc1)OCO3 [Compound 7b]										IC50 (HCT116): 32.7 ± 3.3 nM; IC50 (A549 [2]): 19.8 ± 2.9 nM; IC50 (HepG2): 46.3 ± 5.4 nM; IC50 (HeLa): 11.1 ± 6.7 nM; cytotoxic / anti-proliferation ability [3]: good anti-proliferation ability in all four cell lines
CC[C@@]1(O)C(=O)OCc2c1cc1n(c2=O)Cc2c-1nc1cc3c(cc1c2-c1ccc(F)c(OC)c1)OCO3 [Compound 7h]										ROS production (HCT116 cells): significantly increased
CC[C@@]1(O)C(=O)OCc2c1cc1n(c2=O)Cc2c-1nc1cc3c(cc1c2-c1cc(OC)cc(OC)c1)OCO3 [7Q 24]	1.44 nM	0.68 nM	1.95 nM	0.08 nM	246 nM	0.21 nM				IC50/EC50 (HT-3; HT-3): 3.59 nM; antitumor activity, 7Q-series (1) (PDX14244 and PDX27454): much higher antitumor activity than the other compounds in this 7Q-series (1)
CC[C@@]1(O)C(=O)OCc2c1cc1n(c2=O)Cc2c-1nc1cc3c(cc1c2-c1ccoc1)OCO3 [W-b3]							0.92 nM	much higher antitumor activity than the other compounds in this Wb-series	16.15 nM	
CC[C@@]1(O)C(=O)OCc2c1cc1n(c2=O)Cc2c-1nc1cc3c(cc1c2-c1cccnc1)OCO3 [W-b2]							2.24 nM	much higher antitumor activity than the other compounds in this Wb-series	4.6 nM	

Source: patent publication US20250092058A1 (priority 2018, published 2025)
